Common to all, as to assay: steady-state kinetics, ferrocenium reduction
Holding throughout (format): biochemical

The target of assay [1] is T1, AmPDH (pyranose dehydrogenase from Agaricus meleagris; A. meleagris PDH1) (Macropsalliota meleagris, UniProt Q3L245, H581A).
T1 construct: C-terminal His6 tag; covalent FAD
Particulars: apparent; electron acceptor; 500 mM glucose fixed, 100 mM borate pH 8.5, 30 °C; read-out: Fc^+ / K M. An excerpt: (§1) steady-state kinetics, ferrocenium reduction on AmPDH (pyranose dehydrogenase from Agaricus meleagris; A. meleagris PDH1)

Assay [2] concerns the target T2, AmPDH (pyranose dehydrogenase from Agaricus meleagris; A. meleagris PDH1) (Macropsalliota meleagris, UniProt Q3L245).
T2 construct: C-terminal His6 tag; covalent FAD
Particulars: apparent; electron acceptor; 25 mM glucose fixed, 100 mM borate pH 8.5, 30 °C; read-out: Fc^+ / K M.
From the text: as §1

For assay [3], the target named is T3, AmPDH (pyranose dehydrogenase from Agaricus meleagris; A. meleagris PDH1) (Macropsalliota meleagris, UniProt Q3L245, H128A).
T3 construct: C-terminal His6 tag; covalent FAD
Particulars: apparent; electron acceptor; 50 mM glucose fixed, 100 mM borate pH 8.5, 30 °C; non-covalently bound FAD; read-out: Fc^+ / K M.
From the text: as §1

The values below come from paper PMC4950071, “Reaction of pyranose dehydrogenase from Agaricus meleagris with its carbohydrate substrates” (The Febs Journal, 2015).

T2 sequence (Q3L245 26-602): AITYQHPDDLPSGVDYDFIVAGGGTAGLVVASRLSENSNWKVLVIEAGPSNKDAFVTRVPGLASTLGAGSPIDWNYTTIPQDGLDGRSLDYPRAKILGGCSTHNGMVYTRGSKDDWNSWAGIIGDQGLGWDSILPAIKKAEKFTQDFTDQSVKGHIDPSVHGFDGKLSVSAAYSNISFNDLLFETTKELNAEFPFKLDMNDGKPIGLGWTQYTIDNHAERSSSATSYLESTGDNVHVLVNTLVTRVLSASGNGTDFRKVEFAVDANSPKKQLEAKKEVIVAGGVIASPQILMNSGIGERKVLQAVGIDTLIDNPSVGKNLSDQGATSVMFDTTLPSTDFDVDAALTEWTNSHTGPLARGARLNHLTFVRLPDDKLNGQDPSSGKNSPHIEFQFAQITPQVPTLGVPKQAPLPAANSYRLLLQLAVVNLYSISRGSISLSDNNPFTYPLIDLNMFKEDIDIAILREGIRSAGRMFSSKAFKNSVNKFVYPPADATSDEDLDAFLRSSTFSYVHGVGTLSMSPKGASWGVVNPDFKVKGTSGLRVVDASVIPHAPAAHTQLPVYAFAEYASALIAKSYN
T1 sequence (Q3L245 26-602 H581A): as the sequence (Q3L245 26-602) above, with H556A counted along it
T3 sequence (Q3L245 26-602 H128A): as the sequence (Q3L245 26-602) above, with H103A counted along it

With `C1=CCC=C1.C1=CCC=C1.[Fe+3]` [Fc^+, ferrocenium ion], the Km in assay [1] is 170 ± 10 µM; in assay [2], 170 ± 20 µM; in assay [3], 160 ± 10 µM.
